In patent US20100286145A1, “ISOPHTHALAMIDE DERIVATIVES INHIBITING BETA-SECRETASE ACTIVITY” (CoMentis, Inc., priority 2007, published 2010):

Key:
[1] = tested on: Aβ production in Chinese hamster ovary cells that over-express human APP695 with the London and Swedish mutations; test: Cellular Aβ IC50 determination (Aβ40 sandwich ELISA); type: cell-based; conditions: Cricetulus griseus; cellular Aβ production; read-out: IC50
Method: The potency of compounds against memapsin 2 activity was determined in a cellular assay of Aβ production. […] Chinese hamster ovary cells that over-express human APP695 with the London and Swedish mutations were seeded in multi-well plates at 10% confluency. Compounds are dissolved in DMSO to concentrations near 1 mM, and diluted into culture media to a final concentration near 4 μM (final 0.4% DMSO). […] Aliquots were removed and assayed for Aβ40 content using a sandwich ELISA (BioSource International). Amount of Aβ40 over the range of concentration of compounds, relative to control incubations, were fit to a 4-parameter IC50 model.

[2] = target: memapsin 2 (Homo sapiens, UniProt P56817); test: Inhibition of memapsin 2 beta-secretase activity (fluorogenic substrate FS-2); type: biochemical; conditions: memapsin 2, pH 4, 37° C., 20 minutes pre-incubation; read-out: M2Ki
Procedure, shortened: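 Kinetic fluorogenic assay: hydrolysis of the MCA/DNP-labelled APP Swedish-variant peptide FS-2 monitored as fluorescence rise at 37° C, pH 4, after 20 min enzyme–compound preincubation. Relative rates fitted with a tight-binding inhibitor model.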

Chain of memapsin 2 (P56817 46-501): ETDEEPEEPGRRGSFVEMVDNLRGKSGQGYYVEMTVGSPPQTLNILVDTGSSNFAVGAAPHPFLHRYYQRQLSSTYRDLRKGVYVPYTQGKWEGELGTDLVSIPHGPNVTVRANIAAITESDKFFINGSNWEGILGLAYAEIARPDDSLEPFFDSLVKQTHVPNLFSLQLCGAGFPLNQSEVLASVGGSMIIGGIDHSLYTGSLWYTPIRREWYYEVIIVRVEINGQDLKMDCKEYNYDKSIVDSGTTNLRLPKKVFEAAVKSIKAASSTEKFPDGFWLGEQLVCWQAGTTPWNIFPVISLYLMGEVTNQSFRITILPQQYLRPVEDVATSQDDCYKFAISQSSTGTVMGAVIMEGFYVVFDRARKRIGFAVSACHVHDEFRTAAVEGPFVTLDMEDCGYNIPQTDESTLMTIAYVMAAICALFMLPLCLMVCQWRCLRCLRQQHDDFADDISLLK

Row | Structure (SMILES) | IC50 [1] [nM] | Ki [2] [nM]
1 | COc1cc(C(=O)N[C@@H](Cc2ccccc2)[C@H](O)CNCc2cccc(C(F)(F)F)c2)cc(C(=O)N(C)Cc2nc(C)cs2)c1 [Compound 31, N1-((2S,3R)-3-hydroxy-1-phenyl-4-(3-(trifluoromethyl)benzylamino)butan-2-yl)-5-methoxy-N3-methyl-N3-((4-methylthiazol-2-yl)methyl)isophthalamide] | < 1000 | < 300
2 | COc1cccc(CNC[C@@H](O)[C@H](Cc2ccccc2)NC(=O)c2cc(N)cc(C(=O)N(C)Cc3nc(C)cs3)c2)c1 [Compound 34, 5-amino-N1-((2S,3R)-3-hydroxy-4-(3-methoxybenzylamino)-1-phenylbutan-2-yl)-N3-methyl-N3-((4-methylthiazol-2-yl)methyl)isophthalamide] | 1000 to 5000 | > 501
3 | COc1cccc(CNC[C@@H](O)[C@H](Cc2ccccc2)NC(=O)c2cc(C(=O)NCCO)cc(C(=O)N(C)Cc3nc(C)cs3)c2)c1 [Compound 44, N1-((2S,3R)-3-hydroxy-4-(3-methoxybenzylamino)-1-phenylbutan-2-yl)-N3-(2-hydroxyethyl)-N5-methyl-N5-((4-methylthiazol-2-yl)methyl)benzene-1,3,5-tricarboxamide] | < 1000 | < 300
4 | Cc1csc(CN(C)C(=O)c2cccc(C(=O)N[C@@H](Cc3ccccc3)[C@H](O)CNCc3cncc(N(C)C)c3)c2)n1 [Compound 47, N1-((2S,3R)-4-((5-(dimethylamino)pyridin-3-yl)methylamino)-3-hydroxy-1-phenylbutan-2-yl)-N3-methyl-N3-((4-methylthiazol-2-yl)methyl)isophthalamide] | < 1000 | < 300
5 | COc1cccc(CNC[C@@H](O)[C@H](Cc2ccccc2)NC(=O)c2cc(CO)cc(C(=O)N(C)Cc3nc(C)cs3)c2)c1 [Compound 49, N1-((2S,3R)-3-hydroxy-4-(3-methoxybenzylamino)-1-phenylbutan-2-yl)-5-(hydroxymethyl)-N3-methyl-N3-((4-methylthiazol-2-yl)methyl)isophthalamide] | < 1000 | < 300
6 | COc1cccc(F)c1CNC[C@@H](O)[C@H](Cc1ccccc1)NC(=O)c1cccc(C(=O)N(C)Cc2nc(C)cs2)c1 [Compound 50, N1-((2S,3R)-4-(2-fluoro-6-methoxybenzylamino)-3-hydroxy-1-phenylbutan-2-yl)-N3-methyl-N3-((4-methylthiazol-2-yl)methyl)isophthalamide] | < 1000 | < 300
7 | Cc1csc(CN(C(=O)c2cccc(C(=O)N[C@@H](Cc3ccccc3)[C@H](O)CNCc3cccc(OC(F)(F)F)c3)c2)C2CC2)n1 [Compound 51, N1-cyclopropyl-N3-((2S,3R)-3-hydroxy-1-phenyl-4-(3-(trifluoromethoxy)benzylamino)butan-2-yl)-N1-((4-methylthiazol-2-yl)methyl)isophthalamide] | < 1000 | < 300
8 | Cc1csc(CN(C)C(=O)c2cccc(C(=O)N[C@@H](Cc3ccccc3)[C@H](O)CNCc3cccc(C(C)(C)C)c3)c2)n1 [Compound 52, N1-((2S,3R)-4-(3-tert-butylbenzylamino)-3-hydroxy-1-phenylbutan-2-yl)-N3-methyl-N3-((4-methylthiazol-2-yl)methyl)isophthalamide] | < 1000 | < 300
9 | COc1cc(C(=O)N[C@@H](Cc2ccccc2)[C@H](O)CNCc2ccnc(C(C)C)c2)cc(C(=O)N(C)Cc2nc(C)cs2)c1 [Compound 53, N1-((2S,3R)-3-hydroxy-4-((2-isopropylpyridin-4-yl)methylamino)-1-phenylbutan-2-yl)-5-methoxy-N3-methyl-N3-((4-methylthiazol-2-yl)methyl)isophthalamide] | < 1000 | < 300
10 | COC(=O)c1cc(CNC[C@@H](O)[C@H](Cc2ccccc2)NC(=O)c2cccc(C(=O)N(C)Cc3nc(C)cs3)c2)cc(OC)c1 [Compound 54, methyl 3-(((2R,3S)-2-hydroxy-3-(3-(methyl((4-methylthiazol-2-yl)methyl)carbamoyl)benzamido)-4-phenylbutylamino)methyl)-5-methoxybenzoate] | < 1000 | < 300
11 | Cc1csc(CN(C)C(=O)c2cccc(C(=O)N[C@@H](Cc3ccccc3)[C@H](O)CNCc3cc(C(C)C)cnc3F)c2)n1 [Compound 56, N1-((2S,3R)-4-((2-fluoro-5-isopropylpyridin-3-yl)methylamino)-3-hydroxy-1-phenylbutan-2-yl)-N3-methyl-N3-((4-methylthiazol-2-yl)methyl)isophthalamide] | < 1000 | < 300
12 | C[C@@H](NC(=O)c1cc(C(=O)N[C@@H](Cc2ccccc2)[C@H](O)CNCc2cccc(C(C)(C)C)c2)cc(N(C)S(C)(=O)=O)c1)c1ccccc1 [Compound 58, N1-((2S,3R)-4-(3-tert-butylbenzylamino)-3-hydroxy-1-phenylbutan-2-yl)-5-(N-methylmethylsulfonamido)-N3-((R)-1-phenylethyl)isophthalamide] | < 1000 | < 300
13 | Cc1csc(CN(C(=O)c2cccc(C(=O)N[C@@H](Cc3ccccc3)[C@H](O)CNCc3cncc(C(F)(F)F)c3)c2)C2CC2)n1 [Compound 59, N1-cyclopropyl-N3-((2S,3R)-3-hydroxy-1-phenyl-4-((5-(trifluoromethyl)pyridin-3-yl)methylamino)butan-2-yl)-N1-((4-methylthiazol-2-yl)methyl)isophthalamide] | < 1000 | < 300
14 | Cc1cc(C(=O)N[C@@H](Cc2ccccc2)[C@H](O)CNCc2ccnc(C(C)C)c2)cc(C(=O)N(C)Cc2nc(C)cs2)c1 [Compound 60, N1-((2S,3R)-3-hydroxy-4-((2-isopropylpyridin-4-yl)methylamino)-1-phenylbutan-2-yl)-N3,5-dimethyl-N3-((4-methylthiazol-2-yl)methyl)isophthalamide] | < 1000 | < 300
15 | COc1cccc(CNC[C@@H](O)[C@H](Cc2ccccc2)NC(=O)c2cccc(C(=O)N(C)Cc3ccn(C)n3)c2)c1 [Compound 61, N1-((2S,3R)-3-hydroxy-4-(3-methoxybenzylamino)-1-phenylbutan-2-yl)-N3-methyl-N3-((1-methyl-1H-pyrazol-3-yl)methyl)isophthalamide] | 1000 to 5000 | < 300
16 | Cc1csc(CN(C)C(=O)c2cccc(C(=O)N[C@@H](Cc3ccccc3)[C@H](O)CNCc3ccccn3)c2)n1 [Compound 64, N1-((2S,3R)-3-hydroxy-1-phenyl-4-(pyridin-2-ylmethylamino)butan-2-yl)-N3-methyl-N3-((4-methylthiazol-2-yl)methyl)isophthalamide] | 1000 to 5000 | > 501
17 | COc1cccc(CNC[C@@H](O)[C@H](Cc2ccccc2)NC(=O)c2cc(C(=O)N(C)Cc3nc(C)cs3)cc(N(C)C)c2)c1 [Compound 65, 5-(dimethylamino)-N1-((2S,3R)-3-hydroxy-4-(3-methoxybenzylamino)-1-phenylbutan-2-yl)-N3-methyl-N3-((4-methylthiazol-2-yl)methyl)isophthalamide] | < 1000 | < 300
18 | COc1cccc(CNC[C@@H](O)[C@H](Cc2ccccc2)NC(=O)c2cc(OS(C)(=O)=O)cc(C(=O)N(C)Cc3nc(C)cs3)c2)c1 [Compound 67, 3-((2S,3R)-3-hydroxy-4-(3-methoxybenzylamino)-1-phenylbutan-2-ylcarbamoyl)-5-(methyl((4-methylthiazol-2-yl)methyl)carbamoyl)phenyl methanesulfonate] | < 1000 | < 300
